PubChem BioAssay (NCI)
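1) Cells in 96-well plates. 2) Compound, 48 h, 5 concentrations. 3) Linear interpolation between surrounding doses. 4) Unreached endpoint = highest concentration. Here, GI50 denotes the concentration required for 50% inhibition of growth. Definition used: TGI = concentration required for complete inhibition of growth.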

Tests used:
Assay in all cases: NCI tumour cell line growth inhibition, 48 h
SK-OV-3 ovarian = tested on: SK-OV-3 ovarian
SN12C renal = tested on: SN12C renal
SK-MEL-28 melanoma = tested on: SK-MEL-28 melanoma
KM12 colon = tested on: KM12 colon
HOP-92 NSCLC = tested on: HOP-92 NSCLC
NCI-H226 lung = tested on: NCI-H226 lung
MALME-3M melanoma = tested on: MALME-3M melanoma
HCT-116 colon = tested on: HCT-116 colon
T-47D breast = tested on: T-47D breast
M14 melanoma = tested on: M14 melanoma

Structure (SMILES) | GI50 (SK-OV-3 ovarian) | TGI (SK-OV-3 ovarian) | GI50 (SN12C renal) | TGI (SN12C renal) | GI50 (SK-MEL-28 melanoma) | TGI (SK-MEL-28 melanoma) | GI50 (KM12 colon) | TGI (KM12 colon) | GI50 (HOP-92 NSCLC) | TGI (HOP-92 NSCLC) | GI50 (NCI-H226 lung) | TGI (NCI-H226 lung) | GI50 (MALME-3M melanoma) | TGI (MALME-3M melanoma) | GI50 (HCT-116 colon) | TGI (HCT-116 colon) | GI50 (T-47D breast) | TGI (T-47D breast) | GI50 (M14 melanoma) | TGI (M14 melanoma)
COC(=O)c1cc2c([nH]c3ccccc32)c(-c2nc3cc(N(S(=O)(=O)c4ccc(C)cc4)S(=O)(=O)c4ccc(C)cc4)c(OC)cc3cc2CO)n1 | > 100 µM | > 100 µM | > 100 µM | > 100 µM | > 100000 nM | > 100 µM | > 100 µM | > 100 µM | > 100000 nM | > 100 µM | > 100 µM | > 100 µM | > 100000 nM | > 100 µM | > 100000 nM | > 100 µM | > 100 µM | > 100 µM | > 100 µM | > 100 µM
CN(C)CCCn1c2c(c3ccc([N+](=O)[O-])cc3c1=O)C(=O)c1ccccc1-2 | 28.1 µM | > 100 µM | 4.21 µM | 24.5 µM | > 100000 nM | > 100 µM | 28.4 µM | > 100 µM | 9780 nM | > 100 µM | 6.82 µM | 24 µM | 7860 nM | > 100 µM | 6480 nM | 21.8 µM | 24.1 µM | > 100 µM | 8.54 µM | > 100 µM
COc1ccc(/C(C)=C(\c2ccc(Cl)cc2)c2ccc(OCCN3CCCCC3)cc2)cc1F | 5.92 µM | > 16.7 µM | 2.75 µM | 7.24 µM | 2670 nM | 5.3 µM | 1.97 µM | 6.23 µM | 2500 nM | 6.08 µM | 4.35 µM | > 16.7 µM | 2180 nM | 4.46 µM | 2040 nM | 5.14 µM | 4.25 µM | 14.5 µM | 2.61 µM | 6.17 µM
COc1cc(OC)c(-c2oc3ccccc3c(=O)c2O)c(OC)c1 | – | > 100 µM | – | > 100 µM | – | > 100 µM | – | > 100 µM | – | > 100 µM | – | > 100 µM | – | 98.3 µM | – | > 100 µM | – | > 100 µM | – | > 100 µM
CCOC(=O)C(Cc1ccc(N(CCCl)CCCl)cc1)NC(=O)C(CC(C)C)NC(C)=O (centres undefined) | 1.38 µM | 4.94 µM | 0.999 µM | 10.9 µM | 1610 nM | 3.82 µM | 4.35 µM | 18.8 µM | 727 nM | 2.82 µM | 3.79 µM | 10.7 µM | 873 nM | 2.74 µM | 1060 nM | 3.56 µM | 0.642 µM | 3.48 µM | 0.568 µM | 2.19 µM
C[As](C)SCC(COC(=O)c1ccccc1)OC(=O)c1ccccc1 (centres undefined) | 3.16 µM | 18.1 µM | 0.23 µM | 1.23 µM | 504 nM | 17.4 µM | 0.384 µM | 7.92 µM | 216 nM | 1.74 µM | 1.09 µM | 3.75 µM | – | 0.0345 µM | 29.2 nM | 0.434 µM | 0.0452 µM | 3.84 µM | 0.0588 µM | 1.86 µM
O=C(NC(c1ccccc1)C(O)C(=O)OCc1ccc2c(c1)C(=O)c1ccccc1C2=O)c1ccccc1 (centres undefined) | – | 15.3 µM | – | 47.9 µM | – | > 95.6 µM | – | > 97.4 µM | – | 7.91 µM | – | 18.7 µM | – | 37.9 µM | – | 39.1 µM | – | 34.9 µM | – | > 80.5 µM
CC[N+]1(C)CCC(O)(/C=C/c2ccccc2)C(C(=O)/C=C/c2ccccc2)C1 (centres undefined) | – | 32.9 µM | – | 18 µM | – | 18.9 µM | – | 10.2 µM | – | 31.4 µM | – | 29.7 µM | – | 26.9 µM | – | 38 µM | – | 40.4 µM | – | 25.8 µM
CCCCc1ccc(C(N)=O)nc1 | > 100 µM | > 100 µM | > 100 µM | > 100 µM | > 100000 nM | > 100 µM | > 100 µM | > 100 µM | > 100000 nM | > 100 µM | > 100 µM | > 100 µM | > 100000 nM | > 100 µM | > 100000 nM | > 100 µM | > 100 µM | > 100 µM | > 100 µM | > 100 µM
COc1ccc(/C=C2\CN(Cc3cn(CCCNc4ccnc5cc(Cl)ccc45)nn3)C/C(=C\c3ccc(OC)cc3)C2=O)cc1 | 14.1 µM | 30.6 µM | 13.1 µM | 33.8 µM | 14000 nM | 28 µM | 1.66 µM | 3.39 µM | 962 nM | 15.9 µM | 25.5 µM | > 100 µM | 2090 nM | 5.37 µM | 2800 nM | 12.4 µM | 21 µM | 51.1 µM | 4.15 µM | 16.2 µM
